Data from US11572590B2, “Methods for evaluating tumor cell spheroids using 3D microfluidic cell culture device” (Dana-Farber Cancer Institute, Inc., priority 2017, dated 2023).
Read-outs that look alike come from different tables or passages of the source.

What was measured:
Assay in all cases: SelectScreen Kinase Profiling, single point inhibition and IC50 for off-target kinases
Assay type in all cases: biochemical
[1] = target: T1, off-target kinases (Homo sapiens, UniProt O75385); conditions: ULK1, LanthaScreen Binding
T1 sequence (O75385 1-1050): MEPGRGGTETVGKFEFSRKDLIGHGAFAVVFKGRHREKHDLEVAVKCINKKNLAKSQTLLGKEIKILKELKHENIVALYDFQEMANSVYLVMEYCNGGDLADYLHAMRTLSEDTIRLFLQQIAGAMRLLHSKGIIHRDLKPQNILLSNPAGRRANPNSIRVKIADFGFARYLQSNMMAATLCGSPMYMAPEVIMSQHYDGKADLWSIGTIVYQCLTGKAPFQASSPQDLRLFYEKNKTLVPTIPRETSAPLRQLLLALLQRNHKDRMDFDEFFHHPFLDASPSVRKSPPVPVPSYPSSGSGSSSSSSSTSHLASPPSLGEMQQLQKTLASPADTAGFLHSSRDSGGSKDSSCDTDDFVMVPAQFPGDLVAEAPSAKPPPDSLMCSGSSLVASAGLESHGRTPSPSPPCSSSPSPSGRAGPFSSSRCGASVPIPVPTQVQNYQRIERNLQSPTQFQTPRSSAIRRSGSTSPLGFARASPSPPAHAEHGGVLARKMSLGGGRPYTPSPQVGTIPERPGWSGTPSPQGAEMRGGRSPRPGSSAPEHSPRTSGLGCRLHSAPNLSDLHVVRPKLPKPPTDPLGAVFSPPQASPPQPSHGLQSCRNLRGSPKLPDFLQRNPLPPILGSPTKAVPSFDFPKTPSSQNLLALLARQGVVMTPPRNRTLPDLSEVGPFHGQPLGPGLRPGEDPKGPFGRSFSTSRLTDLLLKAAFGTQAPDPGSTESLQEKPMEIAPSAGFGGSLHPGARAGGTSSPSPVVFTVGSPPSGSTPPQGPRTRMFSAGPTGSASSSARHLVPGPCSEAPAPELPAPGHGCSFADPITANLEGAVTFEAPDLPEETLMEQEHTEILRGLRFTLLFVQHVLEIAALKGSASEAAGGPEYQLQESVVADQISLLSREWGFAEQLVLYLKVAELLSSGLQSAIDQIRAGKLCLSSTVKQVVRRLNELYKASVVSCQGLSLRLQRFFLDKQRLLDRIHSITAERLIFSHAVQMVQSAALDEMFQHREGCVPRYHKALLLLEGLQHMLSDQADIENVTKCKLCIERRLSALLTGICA

[2] = target: off-target kinases (Homo sapiens, UniProt P12931); conditions: SRC, ATP Km app, ZLYTE
[3] = target: off-target kinases (Homo sapiens, UniProt P31749); conditions: AKT1 (PKB alpha), ZLYTE, ATP Km app
[4] = target: T2, off-target kinases (Homo sapiens, UniProt Q04771, R206H); conditions: ACVR1 (ALK2) R206H, LanthaScreen Binding
T2 sequence (Q04771 21-509 R206H): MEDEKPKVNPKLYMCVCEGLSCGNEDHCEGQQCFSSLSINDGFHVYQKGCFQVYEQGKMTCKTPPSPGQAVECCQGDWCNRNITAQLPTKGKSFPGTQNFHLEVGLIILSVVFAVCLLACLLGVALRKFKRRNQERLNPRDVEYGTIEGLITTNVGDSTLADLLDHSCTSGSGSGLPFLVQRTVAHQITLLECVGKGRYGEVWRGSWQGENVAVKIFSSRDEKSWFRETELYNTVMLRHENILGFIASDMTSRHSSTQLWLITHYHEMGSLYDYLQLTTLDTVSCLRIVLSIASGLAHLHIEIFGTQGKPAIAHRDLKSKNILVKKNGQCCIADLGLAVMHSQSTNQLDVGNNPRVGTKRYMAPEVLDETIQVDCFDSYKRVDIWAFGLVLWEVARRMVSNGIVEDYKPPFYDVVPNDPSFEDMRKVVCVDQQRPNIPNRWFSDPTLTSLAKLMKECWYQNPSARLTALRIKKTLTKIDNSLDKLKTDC

[5] = target: off-target kinases (Homo sapiens, UniProt Q96GD4); conditions: AURKB (Aurora B), ATP Km app, ZLYTE
Chain of off-target kinases (Homo sapiens, UniProt Q96GD4) (Q96GD4 whole entry): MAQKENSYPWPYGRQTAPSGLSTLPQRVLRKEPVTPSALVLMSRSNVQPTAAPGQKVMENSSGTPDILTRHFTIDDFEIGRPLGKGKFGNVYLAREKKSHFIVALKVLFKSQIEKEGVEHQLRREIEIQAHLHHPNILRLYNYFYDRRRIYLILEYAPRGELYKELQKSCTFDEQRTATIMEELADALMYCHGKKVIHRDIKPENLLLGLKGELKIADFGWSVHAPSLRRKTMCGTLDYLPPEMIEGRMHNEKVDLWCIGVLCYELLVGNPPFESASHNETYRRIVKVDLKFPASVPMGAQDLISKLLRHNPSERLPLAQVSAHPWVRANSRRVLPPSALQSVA

Chain of off-target kinases (Homo sapiens, UniProt P31749) (P31749 whole entry): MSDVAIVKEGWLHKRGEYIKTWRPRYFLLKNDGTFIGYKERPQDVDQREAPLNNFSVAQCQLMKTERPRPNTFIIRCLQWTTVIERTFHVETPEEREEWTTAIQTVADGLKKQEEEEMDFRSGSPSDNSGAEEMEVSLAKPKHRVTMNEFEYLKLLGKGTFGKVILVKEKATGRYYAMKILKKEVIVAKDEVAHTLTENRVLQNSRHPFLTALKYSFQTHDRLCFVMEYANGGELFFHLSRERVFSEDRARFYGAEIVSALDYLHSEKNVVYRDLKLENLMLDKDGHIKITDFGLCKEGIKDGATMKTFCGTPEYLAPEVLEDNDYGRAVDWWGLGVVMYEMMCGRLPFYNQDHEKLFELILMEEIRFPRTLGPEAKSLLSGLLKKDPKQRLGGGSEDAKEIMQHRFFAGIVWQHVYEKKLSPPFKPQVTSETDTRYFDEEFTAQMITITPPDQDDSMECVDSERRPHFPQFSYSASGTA
Chain of off-target kinases (Homo sapiens, UniProt P12931) (P12931 whole entry): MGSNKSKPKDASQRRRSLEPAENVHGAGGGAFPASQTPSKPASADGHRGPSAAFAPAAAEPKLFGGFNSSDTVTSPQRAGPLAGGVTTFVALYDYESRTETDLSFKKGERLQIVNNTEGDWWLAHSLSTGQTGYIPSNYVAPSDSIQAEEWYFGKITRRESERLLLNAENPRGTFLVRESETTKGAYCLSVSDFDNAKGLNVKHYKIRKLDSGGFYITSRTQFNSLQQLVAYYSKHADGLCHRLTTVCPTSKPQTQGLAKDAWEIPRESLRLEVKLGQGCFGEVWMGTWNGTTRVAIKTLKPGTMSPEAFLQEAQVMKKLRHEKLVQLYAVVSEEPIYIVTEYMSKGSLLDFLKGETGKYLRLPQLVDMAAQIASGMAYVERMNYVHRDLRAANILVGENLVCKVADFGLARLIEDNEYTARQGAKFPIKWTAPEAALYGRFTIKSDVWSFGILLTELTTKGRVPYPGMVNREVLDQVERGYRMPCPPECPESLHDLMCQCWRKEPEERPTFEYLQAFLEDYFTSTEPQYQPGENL

## N#Cc1cc(-c2ncnc(Nc3ccc(N4CCN(C5COC5)CC4)cc3)n2)ccc1OC1CCOCC1 [Compound 1, 5-(4-((4-(4-(oxetan-3-yl)piperazin-1-yl)phenyl)amino)-1,3,5-triazin-2-yl)-2-((tetrahydro-2H-pyran-4-yl)oxy)benzonitrile]
[1]; read-out: % Inhibition 1
  inhibition: 91%
[1]; read-out: % Inhibition 2
  inhibition: 92%
[1]; read-out: % Inhibition Avg
  inhibition: 92%
[2]; read-out: % Inhibition 1
  inhibition: 45%
[2]; read-out: % Inhibition 2
  inhibition: 44%
[2]; read-out: % Inhibition Avg
  inhibition: 45%
[3]; read-out: % Inhibition 1
  inhibition: 1%
[3]; read-out: % Inhibition 2
  inhibition: 3%
[3]; read-out: % Inhibition Avg
  inhibition: 2%
[4]; read-out: % Inhibition 1
  inhibition: 88%
[4]; read-out: % Inhibition 2
  inhibition: 93%
[4]; read-out: % Inhibition Avg
  inhibition: 91%
[5]; read-out: % Inhibition 1
  inhibition: 54%
[5]; read-out: % Inhibition 2
  inhibition: 48%
[5]; read-out: % Inhibition Avg
  inhibition: 51%
